Among the data in article PMC6316187, “Synergistic AML Cell Death Induction by Marine Cytotoxin (+)-1(R), 6(S), 1’(R), 6’(S), 11(R), 17(S)-Fistularin-3 and Bcl-2 Inhibitor Venetoclax” (Marine Drugs, 2018) are inhibition values, retold here.

For this assay, the target named is DNA methyltransferase 1 (DNMT1) (Homo sapiens, UniProt P26358). As to the kind of experiment: in vitro DNMT activity/inhibition assay (Active Motif), […] ng purified DNMT1, colorimetric; […] compound. It counts as biochemical.
Sequence of DNA methyltransferase 1 (DNMT1) (P26358 whole entry): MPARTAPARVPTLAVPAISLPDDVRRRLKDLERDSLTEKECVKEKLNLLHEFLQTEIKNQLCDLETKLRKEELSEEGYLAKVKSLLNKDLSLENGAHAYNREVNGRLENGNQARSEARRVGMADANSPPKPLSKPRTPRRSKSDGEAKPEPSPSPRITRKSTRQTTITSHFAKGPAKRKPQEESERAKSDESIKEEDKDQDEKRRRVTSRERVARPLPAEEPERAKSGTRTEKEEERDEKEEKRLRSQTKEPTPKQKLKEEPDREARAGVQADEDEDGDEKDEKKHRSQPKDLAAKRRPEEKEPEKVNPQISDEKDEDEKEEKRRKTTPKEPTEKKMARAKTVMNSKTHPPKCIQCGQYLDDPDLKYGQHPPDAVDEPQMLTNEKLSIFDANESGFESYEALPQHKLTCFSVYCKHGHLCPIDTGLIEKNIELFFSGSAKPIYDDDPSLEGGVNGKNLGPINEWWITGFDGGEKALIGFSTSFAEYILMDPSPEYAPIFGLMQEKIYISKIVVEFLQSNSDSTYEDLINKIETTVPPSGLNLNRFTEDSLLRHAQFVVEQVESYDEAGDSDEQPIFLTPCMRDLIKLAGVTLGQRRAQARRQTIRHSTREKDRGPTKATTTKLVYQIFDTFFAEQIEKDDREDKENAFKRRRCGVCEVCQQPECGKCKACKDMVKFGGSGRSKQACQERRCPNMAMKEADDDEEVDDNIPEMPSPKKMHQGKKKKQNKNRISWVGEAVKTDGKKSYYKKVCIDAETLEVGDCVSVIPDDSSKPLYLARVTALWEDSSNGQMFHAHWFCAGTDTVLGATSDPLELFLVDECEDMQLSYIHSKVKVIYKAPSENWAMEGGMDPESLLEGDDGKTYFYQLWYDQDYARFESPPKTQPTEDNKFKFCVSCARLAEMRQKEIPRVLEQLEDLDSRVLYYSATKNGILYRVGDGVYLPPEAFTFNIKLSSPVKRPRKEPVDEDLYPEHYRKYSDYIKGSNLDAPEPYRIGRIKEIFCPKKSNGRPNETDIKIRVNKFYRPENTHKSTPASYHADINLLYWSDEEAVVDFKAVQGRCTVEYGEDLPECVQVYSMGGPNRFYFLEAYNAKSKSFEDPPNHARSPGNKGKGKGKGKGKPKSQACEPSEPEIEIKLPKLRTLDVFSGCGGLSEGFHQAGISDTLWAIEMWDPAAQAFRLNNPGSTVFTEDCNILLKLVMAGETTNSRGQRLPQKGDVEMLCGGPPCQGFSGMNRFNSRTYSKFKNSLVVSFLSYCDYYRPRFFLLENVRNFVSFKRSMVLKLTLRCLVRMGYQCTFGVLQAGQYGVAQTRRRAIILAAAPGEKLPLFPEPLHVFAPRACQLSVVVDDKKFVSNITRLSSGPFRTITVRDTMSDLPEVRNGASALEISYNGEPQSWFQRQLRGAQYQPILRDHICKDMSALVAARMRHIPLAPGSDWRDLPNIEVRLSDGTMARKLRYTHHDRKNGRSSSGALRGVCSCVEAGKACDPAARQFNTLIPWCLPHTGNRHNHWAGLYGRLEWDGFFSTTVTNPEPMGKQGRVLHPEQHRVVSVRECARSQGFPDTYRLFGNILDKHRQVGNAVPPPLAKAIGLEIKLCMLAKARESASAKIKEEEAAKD

The inhibition is how much of the control response was suppressed. Read a high inhibition as a response far below the control. On to `COC1=C(Br)[C@H](O)[C@@]2(C=C1Br)CC(C(=O)NC[C@@H](O)COc1c(Br)cc([C@H](O)CNC(=O)C3=NO[C@]4(C=C(Br)C(OC)=C(Br)[C@@H]4O)C3)cc1Br)=NO2` [RS-F3, (+)-11(R), 17(S)-fistularin-3], for which the inhibition at 50 µM was roughly 25%.
